Assay results as given in US20170275270A1, “BENZYL SUBSTITUTED INDAZOLES” (Bayer Pharma Aktiengesellschaft, priority 2014, published 2017).
Where two headings read alike, the source gives them in different places.

What was measured:
[1] = molecular target: T1, catalytic domain of human Bub1 (amino acids 704-1085) (Homo sapiens, UniProt O43683); assay: Bub1 kinase assay (TR-FRET); assay type: biochemical
T1 construct: catalytic domain of human Bub1 (amino acids 704-1085); His6 (N); made in house; host or cells: Hi5 insect cells
In short: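 TR-FRET read-out (Eu-anti-mouse IgG/anti-phosphoserine antibody to streptavidin-XL665 on biotinylated peptide) after EDTA stop and 1 h complex formation at 22° C. Kinase reaction ran 60 min at 22° C with 1:3.4 serial dilutions from 2 mM DMSO stocks. IC50 from 4-parameter logistic fit of normalized inhibition.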

HeLa = assay: Proliferation assay (HeLa cell line); conditions: Homo sapiens, 96 h, read-out: Biological Assay 2: Proliferation assay (HeLa cell line) median IC50;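 also: crystal violet staining of cell number, scaled between a plate stained before dosing (0%) and cells left untreated (100%), compounds tested at 0.001-10 µM, IC50 via 4-parameter fit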
[2] = system: HeLa human cervical tumor cells; assay: Proliferation assay (HeLa+Paclitaxel); conditions: read-out: Biological Assay 3: HeLa + Paclitaxel IC50, 3 nM paclitaxel, crystal violet;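 also: compounds at 0.001-10 µM added 4 h after paclitaxel, 92 h exposure, absorbance normalized to zero-point plate (0%) and untreated cells (100%), IC50 from 4-parameter fit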
Experimental: Proliferation Assay (HeLa+Paclitaxel):
Cultivated HeLa human cervical tumor cells (DSMZ ACC-57) were plated at a density of 3000 cells/well in a 96-well multititer plate in 200 μL of growth medium supplemented 10% fetal calf serum. After 24 hours, the cells of one plate (zero-point plate) were stained with crystal violet (see below). The medium of the other plates was supplemented with 3 nM of paclitaxel (Sigma-Aldrich) and the cells were incubated at 37° C. After 4 hours the test substances were added in various concentrations (0 μM, as well as in the range of 0.001-10 μM; the final concentration of the solvent dimethyl sulfoxide was adjusted to 0.1%) using a Hewlett-Packard HP D300 Digital Dispenser. The cells were incubated for another 92 hours at 37° C. in the presence of test substances. Cell proliferation was determined by staining the cells with crystal violet: the cells were fixed by adding 20 μL/measuring point of an 11% glutaric aldehyde solution for 15 minutes at room temperature. After three washing cycles of the fixed cells with water, the plates were dried at room temperature. The cells were stained by adding 100 μL/measuring point of a 0.1% crystal violet solution (pH 3.0). After three washing cycles of the stained cells with water, the plates were dried at room temperature. The dye was dissolved by adding 100 μL/measuring point of a 10% acetic acid solution. […] The change of cell number, in percent, was calculated by normalization of the measured values to the absorbtion values of the zero-point plate (=0%) and the absorbtion of the untreated (0 μm) cells (=100%). The IC50 values were determined by means of a 4 parameter fit.

[3] = Biological Assay 1: Bub1 kinase assay median IC50, 10 μM ATP
[4] = 10 μM ATP, read-out: Biological Assay 1: Bub1 kinase assay median IC50

T1 sequence (O43683 704-1085): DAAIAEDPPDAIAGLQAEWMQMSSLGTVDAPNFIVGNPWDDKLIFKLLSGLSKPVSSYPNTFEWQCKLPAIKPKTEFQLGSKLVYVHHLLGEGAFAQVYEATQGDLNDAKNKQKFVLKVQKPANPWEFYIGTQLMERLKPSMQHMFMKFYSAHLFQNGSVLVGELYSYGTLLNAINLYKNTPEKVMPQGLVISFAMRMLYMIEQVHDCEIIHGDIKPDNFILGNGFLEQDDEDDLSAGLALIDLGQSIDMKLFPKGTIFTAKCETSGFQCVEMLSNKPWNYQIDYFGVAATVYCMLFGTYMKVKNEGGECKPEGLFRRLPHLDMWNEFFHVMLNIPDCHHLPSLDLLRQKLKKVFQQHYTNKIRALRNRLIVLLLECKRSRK

Structure (SMILES) | IC50 [1, 3] [nM] | IC50 (HeLa) [µM] | IC50 [2] [nM] | IC50 [1, 4] [nM]
COCCOc1cc(F)c(Cn2nc(-c3nc(CN4CCOCC4)cc(Nc4ccncc4C)n3)c3ccccc32)c(F)c1 [Example 2-12-41, 2-{1-[2,6-difluoro-4-(2-methoxyethoxy)benzyl]-1H-indazol-3-yl}-N-(3-methylpyridin-4-yl)-6-(morpholin-4-ylmethyl)pyrimidin-4-amine] | 8.8 | 3.5 | 120 | 
COCCOc1cc(F)c(Cn2nc(-c3nc(CN4CCOCC4)cc(Nc4ccnnc4)n3)c3ccccc32)c(F)c1 [Example 2-12-39, N-[2-{1-[2,6-difluoro-4-(2-methoxyethoxy)benzyl]-1H-indazol-3-yl}-6-(morpholin-4-ylmethyl)pyrimidin-4-yl]pyridazin-4-amine] | 26 | > 10 | 770 | 
COc1cnccc1Nc1cc(C)nc(-c2nn(Cc3c(F)cc(OCCO)cc3F)c3ccccc23)n1 [Example 2-6-33, 2-{3,5-difluoro-4-[(3-{4-[(3-methoxypyridin-4-yl)amino]-6-methylpyrimidin-2-yl}-1H-indazol-1-yl)methyl]phenoxy}ethanol] |  | 3.5 | 1800 | 5.7
Cc1cnccc1Nc1nc(-c2nn(Cc3c(F)cc(OCCO)cc3F)c3ccccc23)nc2c1CCC2 [Example 2-4-8, 2-{3,5-difluoro-4-[(3-{4-[(3-methylpyridin-4-yl)amino]-6,7-dihydro-5H-cyclopenta[d]pyrimidin-2-yl}-1H-indazol-1-yl)methyl]phenoxy}ethanol] | 5 | 1.8 | 370 | 
CCOc1cc(F)c(Cn2nc(-c3ncc(C4CN(CC(F)(F)F)C4)c(Nc4ccncc4)n3)c3ccccc32)c(F)c1 [Example 2-11-2, 2-[1-(4-ethoxy-2,6-difluorobenzyl)-1H-indazol-3-yl]-N-(pyridin-4-yl)-5-[1-(2,2,2-trifluoroeth-yl)azetidin-3-yl]pyrimidin-4-amine] | 20 | 3.4 | 120 | 
CCOc1cc(F)c(Cn2nc(-c3nc4c(c(Nc5ccncc5C(F)(F)F)n3)CCC4)c3ccccc32)c(F)c1 [Example 2-14-3, 2-[1-(4-ethoxy-2,6-difluorobenzyl)-1H-indazol-3-yl]-N-[3-(trifluoromethyl)pyridin-4-yl]-6,7-dihydro-5H-cyclopenta[d]pyrimidin-4-amine] |  | 3 | 250 | 5.2
CCOc1cc(F)c(Cn2nc(-c3nc(CN4CCOCC4)cc(Nc4cc(O)ncn4)n3)c3ccccc32)c(F)c1 [Example 2-12-45, 6-({2-[1-(4-ethoxy-2,6-difluorobenzyl)-1H-indazol-3-yl]-6-(morpholin-4-ylmethyl)pyrimidin-4-yl}amino)pyrimidin-4-ol] | 760 | > 10 | 380 | 
CCOc1cc(F)c(Cn2nc(-c3nc4c(c(Nc5ccnc(NC(=O)C6CC6)c5)n3)CCC4)c3ccccc32)c(F)c1 [Example 2-12-28, N-[4-({2-[1-(4-ethoxy-2,6-difluorobenzyl)-1H-indazol-3-yl]-6,7-dihydro-5H-cyclopenta[d]pyrimidin-4-yl}amino)pyridin-2-yl]cyclopropanecarbox-amide] | 9.4 | 5.3 | 290 | 
Cc1nccc(Nc2nc(-c3nn(Cc4c(F)cc(OCCO)cc4F)c4ccccc34)nc3c2CN(CC(F)(F)F)C3)n1 [Example 2-6-39, 2-{3,5-difluoro-4-[(3-{4-[(2-methylpyrimidin-4-yl)amino]-6-(2,2,2-trifluoroethyl)-6,7-dihydro-5H-pyrrolo[3,4-d]pyrimidin-2-yl}-1H-indazol-1-yl)methyl]phenoxy}ethanol] | 55 | 7 | 1500 | 
COCCOc1cc(F)c(Cn2nc(-c3nc(CN4CCOCC4)cc(Nc4ccncc4)n3)c3ccccc32)c(F)c1 [Example 2-12-43, 2-{1-[2,6-difluoro-4-(2-methoxyethoxy)benzyl]-1H-indazol-3-yl}-6-(morpholin-4-ylmethyl)-N-(pyridin-4-yl)pyrimidin-4-amine] | 9.6 | 3.6 | 250 | 
COCCOc1cc(F)c(Cn2nc(-c3ncc(C4CCN(CC5CC5)CC4)c(Nc4ccnc(C)n4)n3)c3ccccc32)c(F)c1 [Example 2-20-12, 5-[1-(cyclopropylmethyl)piperidin-4-yl]-2-{1-[2,6-difluoro-4-(2-methoxyethoxy)benzyl]-1H-indazol-3-yl}-N-(2-methylpyrimidin-4-yl)pyrimidin-4-amine] | 31 | 1.2 | 68 | 
CCOc1cc(F)c(Cn2nc(-c3nc4c(c(Nc5ccnc(NC(C)=O)c5)n3)CC(C)(C)CC4)c3ccccc32)c(F)c1 [Example 2-12-69, N-[4-({2-[1-(4-ethoxy-2,6-difluorobenzyl)-1H-indazol-3-yl]-6,6-dimethyl-5,6,7,8-tetrahydroquinazolin-4-yl}amino)pyridin-2-yl]acetamide] | 8.8 | 8.5 | 170 | 
COc1cnccc1Nc1nc(-c2nn(Cc3c(F)cc(OCCO)cc3F)c3ccccc23)nc(C)c1C [Example 2-6-31, 2-{3,5-difluoro-4-[(3-{4-[(3-methoxypyridin-4-yl)amino]-5,6-dimethylpyrimidin-2-yl}-1H-indazol-1-yl)methyl]phenoxy}ethanol] |  | 4.9 | 760 | 6.7
CCOc1cc(F)c(Cn2nc(-c3nc4c(c(Nc5ccncc5)n3)CN(CC)CC4)c3ccccc32)c(F)c1 [Example 2-15-1, 2-[1-(4-ethoxy-2,6-difluorobenzyl)-1H-indazol-3-yl]-6-ethyl-N-(pyridin-4-yl)-5,6,7,8-tetrahydropyrido[4,3-d]pyrimidin-4-amine] | 8.6 | > 10 | 69 | 
CCOc1cc(F)c(Cn2nc(-c3nc(Nc4ccncn4)cc(C4CCOCC4)n3)c3ccccc32)c(F)c1 [Example 2-12-92, 2-[1-(4-ethoxy-2,6-difluorobenzyl)-1H-indazol-3-yl]-N-(pyrimidin-4-yl)-6-(tetrahydro-2H-pyran-4-yl)pyrimidin-4-amine] | 20 | 2.7 | 280 | 
CCOc1cc(F)c(Cn2nc(-c3nc(CN4CCOCC4)cc(Nc4ncncc4C)n3)c3ccccc32)c(F)c1 [Example 2-12-38, 2-[1-(4-ethoxy-2,6-difluorobenzyl)-1H-indazol-3-yl]-N-(5-methylpyrimidin-4-yl)-6-(morpholin-4-ylmethyl)pyrimidin-4-amine] | 3000 | 8.8 | 110 | 
CCOc1cc(F)c(Cn2nc(-c3nc(Nc4ccnc(C)n4)cc(C4CCCO4)n3)c3ccccc32)c(F)c1 (racemic) [Example 2-12-87, 2-[1-(4-ethoxy-2,6-difluorobenzyl)-1H-indazol-3-yl]-N-(2-methylpyrimidin-4-yl)-6-[(2rac)-tetrahydrofuran-2-yl]pyrimidin-4-amine] | 37 | 9.3 | 1500 | 
CCOc1cc(F)c(Cn2nc(-c3nc(Nc4ccncc4OC)cc(-c4ccn(C)n4)n3)c3ccccc32)c(F)c1 [Example 2-12-94, 2-[1-(4-ethoxy-2,6-difluorobenzyl)-1H-indazol-3-yl]-N-(3-methoxypyridin-4-yl)-6-(1-methyl-1H-pyrazol-3-yl)pyrimidin-4-amine] | 9.7 | 3.9 | 2300 | 
CCOc1cc(F)c(Cn2nc(-c3nc(C)cc(Nc4ccncc4OC(F)(F)F)n3)c3ccccc32)c(F)c1 [Example 2-12-79, 2-[1-(4-ethoxy-2,6-difluorobenzyl)-1H-indazol-3-yl]-6-methyl-N-[3-(trifluoromethoxy)pyr-idin-4-yl]pyrimidin-4-amine] |  | > 10 | 1900 | 5.6
CCOc1cc(F)c(Cn2nc(-c3nc(CN4CCCCC4)cc(Nc4ccncc4)n3)c3ccccc32)c(F)c1 [Example 2-15-7, 2-[1-(4-ethoxy-2,6-difluorobenzyl)-1H-indazol-3-yl]-6-(piperidin-1-ylmethyl)-N-(pyridin-4-yl)pyrimidin-4-amine] |  | 3.5 | 150 | 7.7
CCOc1cc(F)c(Cn2nc(-c3nc(Nc4ccncn4)cc(C4CCCO4)n3)c3ccccc32)c(F)c1 (racemic) [Example 2-12-86, 2-[1-(4-ethoxy-2,6-difluorobenzyl)-1H-indazol-3-yl]-N-(pyrimidin-4-yl)-6-[(2rac)-tetrahydrofuran-2-yl]pyrimidin-4-amine] | 7.5 | 3.9 | 1400 | 
CCOc1cc(F)c(Cn2nc(-c3nc(Nc4ccncc4OC)cc(C4CCCO4)n3)c3ccccc32)c(F)c1 (racemic) [Example 2-12-88, 2-[1-(4-ethoxy-2,6-difluorobenzyl)-1H-indazol-3-yl]-N-(3-methoxypyridin-4-yl)-6-[(2rac)-tetrahydrofuran-2-yl]pyrimidin-4-amine] | 5.8 | 1.2 | 200 | 
